According to patent publication US11400058B2, “Intravenous formulations of coenzyme Q10 (CoQ10) and methods of use thereof” (Berg LLC, priority 2010, dated 2022):
Marks after values point to notes of the source that are not given here.

Experiment: 4-week repeat-dose toxicology study in rats with 2-week recovery (Study 20000328)
Settings: for Died or Sacrificed Moribund: animals of 15
[1] = 62.5 mg/kg M, end of dosing, animals of 10
[2] = 62.5 mg/kg M, end of recovery, animals of 5
[3] = 125 mg/kg F, end of dosing, animals of 10
[4] = 125 mg/kg F, end of recovery, animals of 5

COC1=C(OC)C(=O)C(C/C=C(\C)CC/C=C(\C)CC/C=C(\C)CC/C=C(\C)CC/C=C(\C)CC/C=C(\C)CC/C=C(\C)CC/C=C(\C)CC/C=C(\C)CCC=C(C)C)=C(C)C1=O [CoQ10, Coenzyme Q10]
Spleen Histiocytic Infiltration, Mild [1]: 0 | Spleen Histiocytic Infiltration, Moderate [1]: 1 | ALT (62.5 mg/kg M, end of recovery): 20 IU/L | APPT (62.5 mg/kg M, end of recovery): 16.7 s | AST (62.5 mg/kg M, end of recovery): 79 IU/L | Body Weight, percent difference from controls (62.5 mg/kg M, end of recovery): +7.4% | Food Consumption, percent difference from controls (62.5 mg/kg M, end of recovery): +5.8% | GGT (62.5 mg/kg M, end of recovery): 0.00 IU/L | Liver weight (absolute), percent difference from controls (62.5 mg/kg M, end of recovery): +5.0% | Spleen weight (absolute), percent difference from controls (62.5 mg/kg M, end of recovery): −22.2% | Adrenal Gland Vacuolation [2]: 5 | Adrenal Gland Vacuolation, Marked [2]: 0 | Adrenal Gland Vacuolation, Mild [2]: 3 | Adrenal Gland Vacuolation, Minimal [2]: 2 | Adrenal Gland Vacuolation, Moderate [2]: 0 | Gross Pathology: Enlarged Spleen [2]: 0 | Gross Pathology: Pale Iliac Lymph Node [2]: 2 | Gross Pathology: Pale Liver [2]: 2 | Gross Pathology: Pale Pancreatic Lymph Node [2]: 1 | Liver Focal Necrosis [2]: 0 | Liver Focal Necrosis, Mild [2]: 0 | Liver Focal Necrosis, Minimal [2]: 0 | Liver Histiocytic Infiltration [2]: 1 | Liver Histiocytic Infiltration, Mild [2]: 0 | Liver Histiocytic Infiltration, Minimal [2]: 1 | Liver Histiocytic Infiltration, Moderate [2]: 0 | Liver Multifocal Necrosis [2]: 0 | Liver Multifocal Necrosis, Mild [2]: 0 | Liver Multifocal Necrosis, Moderate [2]: 0 | Liver Vacuolation [2]: 5 | Liver Vacuolation, Mild [2]: 1 | Liver Vacuolation, Minimal [2]: 4 | Liver Vacuolation, Moderate [2]: 0 | Lymph Node, Man. Histiocytic Infiltration [2]: 4 | Lymph Node, Man. Histiocytic Infiltration, Mild [2]: 0 | Lymph Node, Man. Histiocytic Infiltration, Minimal [2]: 4 | Lymph Node, Man. Histiocytic Infiltration, Moderate [2]: 0 | Lymph Node, Mes. Histiocytic Infiltration [2]: 5 | Lymph Node, Mes. Histiocytic Infiltration, Mild [2]: 1 | Lymph Node, Mes. Histiocytic Infiltration, Minimal [2]: 4 | Spleen Histiocytic Infiltration [2]: 2 | Spleen Histiocytic Infiltration, Marked [2]: 0 | Spleen Histiocytic Infiltration, Mild [2]: 0 | Spleen Histiocytic Infiltration, Minimal [2]: 2 | Spleen Histiocytic Infiltration, Moderate [2]: 0 | Died or Sacrificed Moribund (125 mg/kg F): 0 | ALT (125 mg/kg F, end of dosing): 20 IU/L | APPT (125 mg/kg F, end of dosing): 14.4* seconds | AST (125 mg/kg F, end of dosing): 76* IU/L | Body Weight, percent difference from controls (125 mg/kg F, end of dosing): −5.5% | Eosinophils (125 mg/kg F, end of dosing): 0.08 10^3/cmm | Erythrocytes (125 mg/kg F, end of dosing): 6.90* 10^6/cmm | Food Consumption, percent difference from controls (125 mg/kg F, end of dosing): −12.5* % | GGT (125 mg/kg F, end of dosing): 0.53 IU/L | Hematocrit (125 mg/kg F, end of dosing): 39.1* % | Hemoglobin (125 mg/kg F, end of dosing): 13.5 g/dL | Leukocytes (125 mg/kg F, end of dosing): 9.49 10^3/cmm | Liver weight (absolute), percent difference from controls (125 mg/kg F, end of dosing): −0.6% | Lymphocytes (125 mg/kg F, end of dosing): 7.35 10^3/cmm | Neutrophils (125 mg/kg F, end of dosing): 1.64 10^3/cmm | Spleen weight (absolute), percent difference from controls (125 mg/kg F, end of dosing): −11.2% | Bone Marrow, Sternum Hyperplasia [3]: 0 | Bone Marrow, Sternum Hyperplasia, Mild [3]: 0 | Bone Marrow, Sternum Hyperplasia, Minimal [3]: 0 | Gross Pathology: Enlarged Pancreatic Lymph Nodes [3]: 1 | Gross Pathology: Pale Adrenal [3]: 0 | Gross Pathology: Pale Liver [3]: 10 | Gross Pathology: Pale Lymph Nodes [3]: 0 | Gross Pathology: Pale Ovaries [3]: 1 | Gross Pathology: Pale Pituitary [3]: 0 | Gross Pathology: Pale SQ Skin [3]: 3 | Liver Focal Necrosis [3]: 0 | Liver Focal Necrosis, Minimal [3]: 0 | Liver Histiocytic Infiltration [3]: 9 | Liver Histiocytic Infiltration, Mild [3]: 7 | Liver Histiocytic Infiltration, Minimal [3]: 1 | Liver Histiocytic Infiltration, Moderate [3]: 1 | Liver Vacuolation [3]: 10 | Liver Vacuolation, Mild [3]: 4 | Liver Vacuolation, Minimal [3]: 6 | Lymph Node, Man. Histiocytic Infiltration [3]: 3 | Lymph Node, Man. Histiocytic Infiltration, Mild [3]: 0 | Lymph Node, Man. Histiocytic Infiltration, Minimal [3]: 2 | Lymph Node, Man. Histiocytic Infiltration, Moderate [3]: 1 | Lymph Node, Mes. Histiocytic Infiltration [3]: 10 | Lymph Node, Mes. Histiocytic Infiltration, Mild [3]: 5 | Lymph Node, Mes. Histiocytic Infiltration, Minimal [3]: 5 | Lymph Node, Mes. Histiocytic Infiltration, Moderate [3]: 0 | Ovary Histiocytic Infiltration [3]: 10 | Ovary Histiocytic Infiltration, Mild [3]: 0 | Ovary Histiocytic Infiltration, Minimal [3]: 10 | Ovary Histiocytic Infiltration, Moderate [3]: 0 | Skin, Dermis Histiocytic Infiltration [3]: 2 | Skin, Dermis Histiocytic Infiltration, Marked [3]: 0 | Skin, Dermis Histiocytic Infiltration, Mild [3]: 1 | Skin, Dermis Histiocytic Infiltration, Moderate [3]: 1 | Skin, SQ Histiocytic Infiltration [3]: 2 | Skin, SQ Histiocytic Infiltration, Mild [3]: 2 | Spleen Histiocytic Infiltration [3]: 9 | Spleen Histiocytic Infiltration, Marked [3]: 1 | Spleen Histiocytic Infiltration, Mild [3]: 4 | Spleen Histiocytic Infiltration, Moderate [3]: 3 | ALT (125 mg/kg F, end of recovery): 21 IU/L | APPT (125 mg/kg F, end of recovery): 15.4 s | AST (125 mg/kg F, end of recovery): 68 IU/L | Body Weight, percent difference from controls (125 mg/kg F, end of recovery): −3.9% | Food Consumption, percent difference from controls (125 mg/kg F, end of recovery): −10.5% | GGT (125 mg/kg F, end of recovery): 0.63* IU/L | Liver weight (absolute), percent difference from controls (125 mg/kg F, end of recovery): +3.5% | Spleen weight (absolute), percent difference from controls (125 mg/kg F, end of recovery): −3.4% | Adrenal Gland Vacuolation [4]: 5 | Adrenal Gland Vacuolation, Marked [4]: 0 | Adrenal Gland Vacuolation, Mild [4]: 4 | Adrenal Gland Vacuolation, Minimal [4]: 0 | Adrenal Gland Vacuolation, Moderate [4]: 1 | Gross Pathology: Enlarged Spleen [4]: 0 | Gross Pathology: Pale Iliac Lymph Node [4]: 3 | Gross Pathology: Pale Liver [4]: 5 | Gross Pathology: Pale Ovaries [4]: 0 | Gross Pathology: Pale Pancreatic Lymph Node [4]: 2 | Liver Focal Necrosis [4]: 0 | Liver Focal Necrosis, Mild [4]: 0 | Liver Focal Necrosis, Minimal [4]: 0 | Liver Histiocytic Infiltration [4]: 5 | Liver Histiocytic Infiltration, Mild [4]: 3 | Liver Histiocytic Infiltration, Minimal [4]: 2 | Liver Histiocytic Infiltration, Moderate [4]: 0 | Liver Multifocal Necrosis [4]: 1 | Liver Multifocal Necrosis, Mild [4]: 1 | Liver Multifocal Necrosis, Moderate [4]: 0 | Liver Vacuolation [4]: 5 | Liver Vacuolation, Mild [4]: 4 | Liver Vacuolation, Minimal [4]: 0 | Liver Vacuolation, Moderate [4]: 1 | Lymph Node, Man. Histiocytic Infiltration [4]: 1 | Lymph Node, Man. Histiocytic Infiltration, Mild [4]: 0 | Lymph Node, Man. Histiocytic Infiltration, Minimal [4]: 2 | Lymph Node, Man. Histiocytic Infiltration, Moderate [4]: 0 | Lymph Node, Mes. Histiocytic Infiltration [4]: 5 | Lymph Node, Mes. Histiocytic Infiltration, Mild [4]: 1 | Lymph Node, Mes. Histiocytic Infiltration, Minimal [4]: 4 | Ovary Histiocytic Infiltration [4]: 5 | Ovary Histiocytic Infiltration, Mild [4]: 2 | Ovary Histiocytic Infiltration, Minimal [4]: 3 | Ovary Histiocytic Infiltration, Moderate [4]: 0 | Spleen Histiocytic Infiltration [4]: 2 | Spleen Histiocytic Infiltration, Marked [4]: 0 | Spleen Histiocytic Infiltration, Mild [4]: 0 | Spleen Histiocytic Infiltration, Minimal [4]: 2 | Spleen Histiocytic Infiltration, Moderate [4]: 0 | Died or Sacrificed Moribund (125 mg/kg M): 0 | ALT (125 mg/kg M, end of dosing): 25 IU/L | APPT (125 mg/kg M, end of dosing): 15.9* seconds | AST (125 mg/kg M, end of dosing): 83 IU/L | Body Weight, percent difference from controls (125 mg/kg M, end of dosing): −8.7* % | Eosinophils (125 mg/kg M, end of dosing): 0.08 10^3/cmm
